In paper PMC8158245, “Novel chalcone/aryl carboximidamide hybrids as potent anti-inflammatory via inhibition of prostaglandin E2 and inducible NO synthase activities: design, synthesis, molecular docking studies and ADMET prediction” (Journal of Enzyme Inhibition and Medicinal Chemistry, 2021):
Values joined by “and” are separate entries in the source; they are usually repeats but may differ in a detail not shown here. Equal entries are not always repeated. Where two headings read alike, the source gives them in different places.

What was measured:
iNOS [1] = target: T1, iNOS (Mus musculus, UniProt P29477); assay: iNOS enzymatic activity in LPS-induced RAW 264.7 cells; type: cell-based
T1 construct: endogenous in cells; host or cells: RAW 264.7 cells induced with LPS
T1 sequence (P29477 1-1144): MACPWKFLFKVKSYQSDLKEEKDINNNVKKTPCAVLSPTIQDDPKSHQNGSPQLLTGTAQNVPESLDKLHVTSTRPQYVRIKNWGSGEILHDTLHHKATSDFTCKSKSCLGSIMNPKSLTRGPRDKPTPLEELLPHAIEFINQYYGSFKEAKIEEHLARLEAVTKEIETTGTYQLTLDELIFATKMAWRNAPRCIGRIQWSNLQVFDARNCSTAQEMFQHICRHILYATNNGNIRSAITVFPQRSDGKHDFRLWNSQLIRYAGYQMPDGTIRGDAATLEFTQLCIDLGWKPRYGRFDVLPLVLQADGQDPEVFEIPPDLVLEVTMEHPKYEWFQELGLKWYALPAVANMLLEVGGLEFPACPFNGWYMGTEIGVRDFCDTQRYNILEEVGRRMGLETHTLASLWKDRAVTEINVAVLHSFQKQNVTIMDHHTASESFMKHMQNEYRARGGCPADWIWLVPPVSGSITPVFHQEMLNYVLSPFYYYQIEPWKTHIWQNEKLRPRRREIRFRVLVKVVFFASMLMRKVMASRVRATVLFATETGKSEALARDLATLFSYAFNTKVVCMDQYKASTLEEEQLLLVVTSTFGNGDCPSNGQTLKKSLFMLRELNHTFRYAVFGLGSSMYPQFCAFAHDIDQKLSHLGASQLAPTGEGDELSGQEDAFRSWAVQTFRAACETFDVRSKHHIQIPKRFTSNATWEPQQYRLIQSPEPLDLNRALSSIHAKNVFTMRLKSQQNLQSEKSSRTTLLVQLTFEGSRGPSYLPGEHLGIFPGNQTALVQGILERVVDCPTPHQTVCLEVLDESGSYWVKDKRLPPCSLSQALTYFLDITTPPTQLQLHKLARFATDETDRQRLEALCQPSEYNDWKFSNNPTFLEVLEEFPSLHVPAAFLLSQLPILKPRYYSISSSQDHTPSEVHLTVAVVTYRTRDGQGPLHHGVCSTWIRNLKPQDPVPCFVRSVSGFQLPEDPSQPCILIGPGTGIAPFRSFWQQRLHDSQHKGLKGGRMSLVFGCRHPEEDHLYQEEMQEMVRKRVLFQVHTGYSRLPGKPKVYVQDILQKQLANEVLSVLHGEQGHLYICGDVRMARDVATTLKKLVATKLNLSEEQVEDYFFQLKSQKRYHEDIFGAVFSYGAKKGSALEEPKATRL
Description: Then, the NOS assay reaction solution (100 µl/well) was added and incubated for an extra 2 h at 37 °C. The fluorescence with excitation wavelength at 485 nm and emission wavelength at 528 nm was measured using a fluorescent microplate reader.

[2] = test system: LPS-induced NO production in RAW 264.7 cells; assay: Griess assay for NO release from LPS-stimulated RAW 264.7 cells; type: cell-based; conditions: Mus musculus, RAW264.7; for IC50: LPS-induced RAW 264.7 cells; for inhibition at 5 µM: compounds at 5 µM, 2 h before LPS, RAW 264.7 cells, read-out: NO Inhibition rates (%) ± SD
Description: Equal volumes of Griess reagent and the supernatant, obtained from treated RAW264.7 cells with the compounds 2 h before LPS induction, were mixed for 10 min at room temperature in the dark. The absorbance was measured at 540 nm using ELISA plate reader and the nitrite concentration was calculated from sodium nitrite standard curve. The percentage inhibition (%) is calculated as absorbance at 540 nm of (LPS-compounds)/absorbance at 540 nm of (LPS-control) ×100[47]^,[48].

[3] = test system: PGE2 production in RAW 264.7 cells; assay: PGE2 concentration by ELISA in LPS-treated RAW 264.7 cells; type: cell-based; conditions: Mus musculus, RAW264.7; LPS-induced RAW 264.7 cells
Description: After seeding and incubation of RAW 264.7 cells for 24 h, then the cells were treated with the compounds (4c, 4d, 6a, 6c, 6d and 6e) at different concentrations and with LPS (1 µg/ml) for another 24 h. The concentration of prostaglandin E2 (PGE2) was measured in the culture media using ELISA kit (R&D Systems, Minneapolis, MN)[50].

[4] = test system: carrageenan-induced paw edoema; assay: Carrageenan-induced rat paw edoema; type: in vivo, Wistar albino rats; conditions: for % of edoema inhibition (% mean ± SEM), 1 h / % of edoema inhibition (% mean ± SEM), 2 h / % of edoema inhibition (% mean ± SEM), 3 h / % of edoema inhibition (% mean ± SEM), 4 h: rat, 50 mg/kg oral; for % of edoema inhibition (% mean ± SEM), 1 h: 1 h after carrageenan; for % of edoema inhibition (% mean ± SEM), 2 h: 2 h after carrageenan; for % of edoema inhibition (% mean ± SEM), 3 h: 3 h after carrageenan; for % of edoema inhibition (% mean ± SEM), 4 h: 4 h after carrageenan
Description: The anti-inflammatory activity of the inspiring active compounds in vitro (4c, 4d, 6a, 6c, 6d and 6e) were further estimated in vivo using the carrageenan-induced paw edoema test. […] The paw thickness was assessed using Vernier calliper after carrageenan injection for 1,2, 3 and 4 h. Wistar albino rats (males weighing 120–140 g, six rats per group) were grouped as follows: Group 1 (Control) rats were received the vehicle. […] The percentage inhibition of edoema thickness was calculated at each time interval in comparison to the control group.

COX-2 [5] = assay: In vitro COX-2 inhibition assay (Cayman kit); type: biochemical, bovine; conditions: selectivity index from COX 1 and COX 2 IC50
[6] = MTT cytotoxicity assay on RAW 264.7 cells; type: cell-based; conditions: mouse; for IC50 at 20 h: with LPS; for IC50: without LPS
Description: MTT assay was used to assess the cell viability of RAW 264.7 cells cultured in RPMI-1640 complete media. […] Afterwards, 5 µl of MTT solution were added and incubated for further 4 h. Finally, 150 ul of dimethyl sulfoxide (DMSO) were added and the optical density was assessed at 570 nm using an ELISA plate reader.

bovine COX-1 = target: T2, bovine COX-1 (Ovis aries, UniProt P05979); assay: In vitro COX-1 inhibition assay (Cayman kit); type: biochemical
T2 construct: purchased Cayman Chemical 560101
T2 sequence (P05979 25-600): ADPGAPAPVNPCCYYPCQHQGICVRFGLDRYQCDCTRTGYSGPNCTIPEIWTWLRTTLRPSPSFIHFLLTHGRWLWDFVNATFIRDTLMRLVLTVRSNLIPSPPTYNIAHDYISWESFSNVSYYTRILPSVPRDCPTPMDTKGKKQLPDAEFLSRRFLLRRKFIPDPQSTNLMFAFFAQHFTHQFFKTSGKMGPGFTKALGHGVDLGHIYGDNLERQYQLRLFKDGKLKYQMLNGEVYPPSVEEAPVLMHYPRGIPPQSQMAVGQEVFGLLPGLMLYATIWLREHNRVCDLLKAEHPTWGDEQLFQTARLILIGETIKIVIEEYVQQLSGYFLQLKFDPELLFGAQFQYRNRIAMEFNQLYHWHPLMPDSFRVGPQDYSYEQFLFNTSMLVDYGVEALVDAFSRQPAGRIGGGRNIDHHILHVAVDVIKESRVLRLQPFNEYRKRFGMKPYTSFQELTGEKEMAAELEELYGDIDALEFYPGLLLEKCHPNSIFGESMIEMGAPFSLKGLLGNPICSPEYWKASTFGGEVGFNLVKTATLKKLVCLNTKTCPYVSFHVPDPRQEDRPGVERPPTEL

15-LOX = test system: 15-LOX; design: method as in PMID 30878890; conditions: Figure 1; cited from earlier work
COX-2 [7] = test system: COX-2; design: method as in PMID 30878890; conditions: cited from earlier work; for IC50: Figure 1
[8] = test system: LPS-induced NO production; conditions: cited from earlier work
iNOS [9] = target: T1, iNOS; conditions: cited from earlier work
PGE2 = conditions: cited from earlier work
[10] = four hours after carrageenan injection

SMILES: COc1ccc(C(=O)/C=C/c2ccc(OCC(=O)O/N=C(\N)c3ccccc3)cc2)cc1 [Compound 6a, N’-(2-{4-[(1E)-3-(4-Methoxyphenyl)-3-oxoprop-1-en-1-yl]phenoxy}acetoxy) benzenecarboximidamide]
- melting point: 172 to 173 °C
- IC50 (iNOS [1]): 6.32 µM
- IC50 [2]: 13.6 µM
- inhibition at 5 µM [2]: 55.5 ± 2.4%
- IC50 [3]: 0.0481 µM
- % of edoema inhibition (% mean ± SEM), 1 h [4]: 14.36 ± 3.11%
- % of edoema inhibition (% mean ± SEM), 2 h [4]: 24.33 ± 2.26%
- % of edoema inhibition (% mean ± SEM), 3 h ([4]; 50 mg/kg): 45.83% and 45.83 ± 2.74%
- % of edoema inhibition (% mean ± SEM), 4 h [4]: 55.74 ± 2.59%
- SI (COX-2 [5]): 19
- IC50 at 20 h [6]: > 80 µM
- IC50 [6]: > 80 µM
- IC50 (bovine COX-1): 20.9 ± 1.09 µM

SMILES: COc1ccc(C(=O)/C=C/c2ccc(OCC(=O)O/N=C(\N)c3ccc(OC)c(OC)c3)cc2)cc1 [Compound 6d, N’-(2-{4-[(1E)-3-(4-Methoxyphenyl)-3-oxoprop-2-en-1-yl]phenoxy}acetoxy) -3,4-dimethoxybenzenecarboximidamide]
- IC50 (iNOS [1]): 1.91 µM
- IC50 [2]: 4.36 µM
- inhibition at 5 µM [2]: 78.2 ± 3.4%
- IC50 [3]: 0.0212 µM
- anti-inflammatory activity relative to celecoxib [4, 10]: ~7 fold
- anti-inflammatory activity relative to indomethacin [4, 10]: ~1.5 fold
- % of edoema inhibition (% mean ± SEM), 1 h [4]: 13.25 ± 2.04%
- % of edoema inhibition (% mean ± SEM), 2 h [4]: 38.43 ± 3.62%
- % of edoema inhibition (% mean ± SEM), 3 h ([4]; 50 mg/kg): 65.31% and 65.31 ± 2.64%
- % of edoema inhibition (% mean ± SEM), 4 h ([4]; 50 mg/kg): 78.51% and 78.53% and 78.53 ± 3.28%
- SI (COX-2 [5]): 0.17
- IC50 at 20 h [6]: > 80 µM
- IC50 [6]: > 80 µM
- IC50 (bovine COX-1): 17.8 ± 0.93 µM

SMILES: COc1ccc(C(=O)/C=C/c2ccc(OCC(=O)O/N=C(\N)c3ccc([N+](=O)[O-])cc3)cc2)cc1 [Compound 6e, N’-(2-{4-[(1E)-3-(4-Methoxyphenyl)-3-oxoprop-2-en-1-yl]phenoxy}acetoxy)-4-nitrobenzenecarboximidamide]
- melting point: 193 to 194 °C
- IC50 (iNOS [1]): 7.15 µM
- IC50 [2]: 15.8 µM
- inhibition at 5 µM [2]: 57.9 ± 1.3%
- IC50 [3]: 0.0451 µM
- % of edoema inhibition (% mean ± SEM), 1 h [4]: 10.23 ± 3.17%
- % of edoema inhibition (% mean ± SEM), 2 h [4]: 19.34 ± 2.45%
- % of edoema inhibition (% mean ± SEM), 4 h [4]: 33.21 ± 3.15%
- SI (COX-2 [5]): 7.43
- IC50 at 20 h [6]: > 80 µM
- IC50 [6]: > 80 µM
- IC50 (bovine COX-1): 12.7 ± 0.66 µM

SMILES: COc1ccc2cc(C(C)C(=O)O/N=C(\N)c3ccc(Cl)cc3)ccc2c1 (centres unmarked) [IV]
- IC50 (15-LOX): 1.77 nM
- IC50 (COX-2 [7]): 7.15 nM

SMILES: COc1ccc2c(c1)c(CC(=O)O/N=C(\N)c1ccc(OC)c(OC)c1)c(C)n2C(=O)c1ccc(Cl)cc1 [VII]
- IC50 ([8]; Figure 1, read-out: NO IC50): 6.53 µM
- IC50 (iNOS [9]; Figure 1, read-out: iNOS IC50): 3.26 µM
- IC50 (PGE2): 0.0345 µM

SMILES: COc1ccc2c(c1)c(CC(=O)O/N=C(\N)c1ccccc1)c(C)n2C(=O)c1ccc(Cl)cc1 [VI]
- IC50 ([8]; as printed in the introduction, read-out: LPS-induced NO production IC50): 10.7 µM
- IC50 (iNOS [9]; as printed in the introduction, read-out: iNOS activity IC50): 2.31 µM
- IC50 (PGE2): 0.029 µM

SMILES: COc1ccc2cc(C(C)C(=O)O/N=C(\N)c3ccc(OC)c(OC)c3)ccc2c1 (centres unmarked) [V]
- IC50 (15-LOX): 2.07 nM
- IC50 (COX-2 [7]): 6.4 nM
- COX-2 inhibitory potency relative to celecoxib (COX-2 [7]): approximately 6.6 folds
